Data reported in US9247759B2, “Identification of human T2R receptors that respond to bitter compounds that elicit the bitter taste in compositions, and the use thereof in assays to identify compounds that inhibit (block) bitter taste in compositions and use thereof” (SENOMYX, INC., priority 2007, dated 2016).
Like-named read-outs stand apart in the source and are kept apart here.

Target: hT2R8 (Homo sapiens (Human), UniProt Q9NYW2)
Assay: hT2R8 antagonist high-throughput FLIPR assay, stable cell line with G16g44, agonist andrographolide
Format: cell-based
Outline: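 HEK293 cells stably co-expressing hT2R8 and chimeric G16g44, read on FLIPR. Test compounds added together with andrographolide (200 μM), which drives the receptor to 70–80% of maximal activity; antagonism seen as reduced agonist response.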

[1] = read-out: IC50 on hT2R8 bitter receptor
[2] = table after Example 10-97, read-out: hT2R8 IC50
[3] = table after Example 12-37, read-out: hT2R8 IC50
[4] = unit uM, read-out: IC50 on hT2R08 bitter receptor

hT2R8, sequence (Q9NYW2 whole entry): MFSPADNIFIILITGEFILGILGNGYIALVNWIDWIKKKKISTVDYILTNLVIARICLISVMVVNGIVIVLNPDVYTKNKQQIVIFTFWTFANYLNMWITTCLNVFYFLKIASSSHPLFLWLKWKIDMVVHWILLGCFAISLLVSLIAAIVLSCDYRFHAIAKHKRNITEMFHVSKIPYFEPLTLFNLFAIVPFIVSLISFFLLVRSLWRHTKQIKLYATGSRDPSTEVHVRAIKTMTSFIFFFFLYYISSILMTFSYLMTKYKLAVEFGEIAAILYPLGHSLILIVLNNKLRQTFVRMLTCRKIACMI

Row | IC50 (Table A, read-out: hT2R8 IC50) | IC50 [1] | Molecule | further results
1 | 2.15 µM | – | Cc1ccccc1S(=O)(=O)Nc1cnn(Cc2c(C)noc2C)c1 [Example 4-102, N-(1-((3,5-dimethylisoxazol-4-yl)methyl)-1H-pyrazol-4-yl)-2-methylbenzenesulfonamide] | –
2 | 7.87 µM | – | Cc1noc(C)c1Cn1cc(NC(=O)c2ccoc2C)cn1 [Example 4-51, N-(1-((3,5-dimethylisoxazol-4-yl)methyl)-1H-pyrazol-4-yl)-2-methylfuran-3-carboxamide] | –
3 | 2.13 µM | – | Cc1noc(C)c1Cn1cc(N(C)C(=O)C(C)c2ccccc2)cn1 (centres unmarked) [Example 4-97, N-(1-((3,5-dimethylisoxazol-4-yl)methyl)-1H-pyrazol-4-yl)-N-methyl-2-phenylpropanamide] | –
4 | 0.48 µM | – | COc1cc(C(=O)Nc2cnn(Cc3c(C)noc3C)c2)ccc1O [Example 4-20, N-(1-((3,5-dimethylisoxazol-4-yl)methyl)-1H-pyrazol-4-yl)-4-hydroxy-3-methoxybenzamide] | –
5 | – | 0.02 µM | Cc1noc(C)c1Cn1cc(N2C(=O)N(Cc3cccc(O)c3)C3(CC3)C2=O)cn1 [Example 12-15, 6-(1-((3,5-dimethylisoxazol-4-yl)methyl)-1H-pyrazol-4-yl)-4-(3-hydroxybenzyl)-4,6-diazaspiro[2.4]heptane-5,7-dione] | –
6 | 2.2 µM | – | Cc1noc(C)c1Cn1cc(NC(=O)C2CCCCC2)cn1 [Example 4-61, N-(1-((3,5-dimethylisoxazol-4-yl)methyl)-1H-pyrazol-4-yl)cyclohexanecarboxamide] | –
7 | 0.49 µM | – | Cc1noc(C)c1Cn1cc(NC(=O)CCc2ccccc2)cn1 [Example 4-55, N-(1-((3,5-dimethylisoxazol-4-yl)methyl)-1H-pyrazol-4-yl)-3-phenylpropanamide] | –
8 | – | – | 1-((1,3-dimethyl-1H-pyrazol-4-yl)methyl)-3-(1-((3,5-dimethylisoxazol-4-yl)methyl)-1H-pyrazol-4-yl) imidazolidine-2,4-dione [Example 10-90] | IC50 [2]: 0.215 µM
9 | – | 0.02 µM | Cc1noc(C)c1Cn1cc(N2C(=O)[C@H](C)N(Cc3cccc(O)c3)C2=O)cn1 [Example 12-6, (S)-3-(1-((3,5-dimethylisoxazol-4-yl)methyl)-1H-pyrazol-4-yl)-1-(3-hydroxybenzyl)-5-methylimidazolidine-2,4-dione] | –
10 | 1.05 µM | – | Cc1noc(C)c1Cn1cc(NC(=O)c2cccnc2)cn1 [Example 4-46, N-(1-((3,5-dimethylisoxazol-4-yl)methyl)-1H-pyrazol-4-yl)nicotinamide] | –
11 | 9.25 µM | – | COc1cccc(C(=O)Nc2cn(Cc3c(C)noc3C)nc2C)c1 [Example 4-115, N-(1-((3,5-dimethylisoxazol-4-yl)methyl)-3-methyl-1H-pyrazol-4-yl)-3-methoxybenzamide] | –
12 | – | 0.28 µM | Cc1noc(C)c1Cn1cc(NC(=O)CC(C)c2ccccc2)cn1 (centres unmarked) [Example 4-12, N-(1-((3,5-dimethylisoxazol-4-yl)methyl)-1H-pyrazol-4-yl)-3-phenylbutanamide] | –
13 | 2.35 µM | – | Cc1noc(C)c1Cn1cc(NC(=S)Nc2ccccc2C#N)cn1 [Example 4-111, 1-(2-cyanophenyl)-3-(1-((3,5-dimethylisoxazol-4-yl)methyl)-1H-pyrazol-4-yl)thiourea] | –
14 | – | 0.7 µM | COc1cc2c(cc1C(=O)Nc1cnn(Cc3c(C)noc3C)c1)OCCO2 [Example 4-95, N-(1-((3,5-dimethylisoxazol-4-yl)methyl)-1H-pyrazol-4-yl)-7-methoxy-2,3-dihydrobenzo[b][1,4]dioxine-6-carboxamide] | –
15 | – | 0.15 µM | Cc1noc(C)c1Cn1cc(N2C(=O)C(Cc3ccccc3)N(C)C2=O)cn1 (centres unmarked) [Example 10-42, 5-benzyl-3-(1-((3,5-dimethylisoxazol-4-yl)methyl)-1H-pyrazol-4-yl)-1-methylimidazolidine-2,4-dione] | IC50 [2]: 0.017 µM
16 | 1.63 µM | – | Cc1noc(C)c1Cn1cc(NC(=S)Nc2ccccc2F)cn1 [Example 4-105, 1-(1-((3,5-dimethylisoxazol-4-yl)methyl)-1H-pyrazol-4-yl)-3-(2-fluorophenyl)thiourea] | –
17 | – | – | COCc1ccc(CN2C(=O)N(c3cnn(Cc4c(C)noc4C)c3)C(=O)C2(C)C)cc1 [Example 12-92, 3-(1-((3,5-dimethylisoxazol-4-yl)methyl)-1H-pyrazol-4-yl)-1-(4-(methoxymethyl)benzyl)-5,5-dimethylimidazolidine-2,4-dione] | IC50 [3]: 0.28 µM
18 | – | – | COC(=O)COc1cccc(CN2C(=O)N(c3cnn(Cc4c(C)noc4C)c3)C(=O)C2(C)C)c1 [Example 12-75, methyl 2-(3-((3-(1-((3,5-dimethylisoxazol-4-yl)methyl)-1H-pyrazol-4-yl)-5,5-dimethyl-2,4-dioxoimidazolidin-1-yl)methyl)phenoxy)acetate] | IC50 [3]: 0.53 µM

Row | IC50 (Table A, read-out: hT2R8 IC50) | IC50 [1] | Molecule | further results
19 | 2.81 µM | – | Cc1noc(C)c1Cn1cc(N(C)C(=O)[C@@H](C)c2ccccc2)cn1 [Example 4-98, (S)-N-(1-((3,5-dimethylisoxazol-4-yl)methyl)-1H-pyrazol-4-yl)-N-methyl-2-phenylpropanamide] | –
20 | – | – | Cc1ccc(CN2C(=O)N(c3cnn(Cc4c(C)noc4C)c3)C(=O)C2(C)C)cc1C [Example 12-83, 1-(3,4-dimethylbenzyl)-3-(1-((3,5-dimethylisoxazol-4-yl)methyl)-1H-pyrazol-4-yl)-5,5-dimethylimidazolidine-2,4-dione] | IC50 [3]: 1.22 µM
21 | – | 0.5 µM | Cc1noc(C)c1Cn1cc(N2C(=O)CN(Cc3ccccc3C#N)C2=O)cn1 [Example 10-19, 2-((3-(1-((3,5-dimethylisoxazol-4-yl)methyl)-1H-pyrazol-4-yl)-2,4-dioxoimidazolidin-1-yl)methyl)benzonitrile] | IC50 [2]: 0.55 µM
22 | – | – | COc1ccc(CN2CC(=O)N(c3cnn(Cc4c(C)noc4C)c3)C2=O)cc1 [Example 10-29, 3-(1-((3,5-dimethylisoxazol-4-yl)methyl)-1H-pyrazol-4-yl)-1-(4-methoxybenzyl)imidazolidine-2,4-dione] | IC50 [2]: 3.12 µM; IC50 [4]: 0.07 µM
23 | 0.4 µM | – | Cc1noc(C)c1Cn1cc(NC(=O)c2ccc3c(c2)OCCO3)cn1 [Example 4-88, N-(1-((3,5-dimethylisoxazol-4-yl)methyl)-1H-pyrazol-4-yl)-2,3-dihydrobenzo[b][1,4]dioxine-6-carboxamide] | –
24 | – | – | Cc1noc(C)c1Cn1cc(N2C(=O)CN(Cc3ccccc3[N+](=O)[O-])C2=O)cn1 [Example 10-23, 3-(1-((3,5-dimethylisoxazol-4-yl)methyl)-1H-pyrazol-4-yl)-1-(2-nitrobenzyl)imidazolidine-2,4-dione] | IC50 [2]: 0.081 µM; IC50 [4]: 0.07 µM
25 | – | – | Cc1noc(C)c1Cn1cc(N2C(=O)N(CCc3cccc(F)c3)C(C)(C)C2=O)cn1 [Example 12-50, 3-(1-((3,5-dimethylisoxazol-4-yl)methyl)-1H-pyrazol-4-yl)-1-(3-fluorophenethyl)-5,5-dimethylimidazolidine-2,4-dione] | IC50 [3]: 0.15 µM
26 | – | 0.03 µM | Cc1noc(C)c1Cn1cc(N2C(=O)C3Cc4cc(O)ccc4CN3C2=O)cn1 (centres unmarked) [Example 13-3, 2-(1-((3,5-dimethylisoxazol-4-yl)methyl)-1H-pyrazol-4-yl)-8-hydroxy-10,10a-dihydroimidazo[1,5-b]isoquinoline-1,3(2H,5H)-dione] | –
27 | – | 12.1 µM | Cc1noc(C)c1Cn1cnc(NC(=O)c2ccc3c(c2)OCO3)c1 [Example 10-40, N-(1-((3,5-dimethylisoxazol-4-yl)methyl)-1H-imidazol-4-yl)benzo[d][1,3]dioxole-5-carboxamide] | –
28 | 0.57 µM | – | Cc1cccc(C(=O)Nc2cnn(Cc3c(C)noc3C)c2)c1 [Example 4-28, N-(1-((3,5-dimethylisoxazol-4-yl)methyl)-1H-pyrazol-4-yl)-3-methylbenzamide] | –
29 | – | 0.03 µM | Cc1noc(C)c1Cn1cc(N2C(=O)N(Cc3cccc(O)c3)C3(CCC3)C2=O)cn1 [Example 12-4, 7-(1-((3,5-dimethylisoxazol-4-yl)methyl)-1H-pyrazol-4-yl)-5-(3-hydroxybenzyl)-5,7-diazaspiro[3.4]octane-6,8-dione] | –
30 | – | – | Cc1noc(C)c1Cn1cc(N2C(=O)N(CCc3ccccc3F)C(C)(C)C2=O)cn1 [Example 12-53, 3-(1-((3,5-dimethylisoxazol-4-yl)methyl)-1H-pyrazol-4-yl)-1-(2-fluorophenethyl)-5,5-dimethylimidazolidine-2,4-dione] | IC50 [3]: 0.2 µM
31 | – | 0.35 µM | Cc1noc(C)c1Cn1cc(N2C(=O)N(CCOc3ccccc3)C(C)(C)C2=O)cn1 [Example 12-27, 3-(1-((3,5-dimethylisoxazol-4-yl)methyl)-1H-pyrazol-4-yl)-5,5-dimethyl-1-(2-phenoxyethyl)imidazolidine-2,4-dione] | –
32 | – | 0.72 µM | Cc1noc(C)c1Cn1cc(N2C(=O)CN(Cc3cccc(CO)n3)C2=O)cn1 [Example 10-71, 3-(1-((3,5-dimethylisoxazol-4-yl)methyl)-1H-pyrazol-4-yl)-1-((6-(hydroxymethyl)pyridin-2-yl)methyl)imidazolidine-2,4-dione] | IC50 [2]: 0.721 µM
33 | – | 0.01 µM | Cc1noc(C)c1Cn1cc(N2C(=O)N(Cc3ccc(F)c(O)c3)C(C)(C)C2=O)cn1 [Example 12-19, 3-(1-((3,5-dimethylisoxazol-4-yl)methyl)-1H-pyrazol-4-yl)-1-(4-fluoro-3-hydroxybenzyl)-5,5-dimethylimidazolidine-2,4-dione] | –
34 | 8.76 µM | – | CNc1cnn(Cc2c(C)noc2C)c1 [Example 4-96, 1-((3,5-dimethylisoxazol-4-yl)methyl)-N-methyl-1H-pyrazol-4-amine] | –
35 | – | – | Cc1noc(C)c1Cn1cc(N2C(=O)N(Cc3cccc(O)c3O)C(C)(C)C2=O)cn1 [Example 12-43, 1-(2,3-dihydroxybenzyl)-3-(1-((3,5-dimethylisoxazol-4-yl)methyl)-1H-pyrazol-4-yl)-5,5-dimethylimidazolidine-2,4-dione] | IC50 [3]: 0.1 µM

Row | Molecule | IC50 (Table A, read-out: hT2R8 IC50) | IC50 [1] | further results
36 | Cc1noc(C)c1Cn1cc(NC(=O)[C@H](C)c2ccccc2)cn1 [Example 4-42, (R)-N-(1-((3,5-dimethylisoxazol-4-yl)methyl)-1H-pyrazol-4-yl)-2-phenylpropanamide] | 3.72 µM | – | –
